These results are taken from US20220265606A1, “ANTICANCER AGENTS” (The Texas A&M University System, priority 2019, published 2022).

Where two headings read alike, the source gives them in different places.

The subject of series [1] is glioblastoma cells. As to the kind of experiment: Western blot of apoptosis markers in whole cell lysates. Type of series: cell-based, human. The method, then: Western Blot Analysis. 17008, 15037, 14104s, 14015s, 15049, U87-MG, A172, T98G, and CCF-STTG1 cells were seeded at density of 1.5×10^5 per ml in 6 well plates and treated with various concentration of compounds and whole cell proteins were extracted using RIPA lysis buffer containing 10 mM Tris-HCl (pH 7.4), 150 mM NaCl, 1 mM ethylenediaminetetraacetic acid (EDTA), 1% Triton X-100 (w/v), 0.5% sodium deoxycholate and 0.1% sodium dodecylsulphate (SDS) with protease and phosphatase inhibitor cocktail. Protein concentrations were measured using Lowry's method and equal amounts of protein were separated in 10% and 15% SDS-PAGE and transferred to a Polyvinylidene difluoride (PVDF) membrane. PVDF membranes were incubated overnight at 4° C. with primary antibodies in 5% skimmed milk and incubated for 2-3 hr with secondary antibodies conjugated with horseradish peroxidase (HRP). Membranes were then exposed to HRP-substrate and immune reacted proteins were detected with chemiluminescence reagent.
(§1) Glioblastoma cells were treated with different concentrations of 4-Cl (FIG. 6A), 3-CF3-4-Cl (FIG. 6B), and 2-OH-4-Br (FIG. 6C) and effects on induction of Annexin V were determined as outlined herein. Glioblastoma cells were treated with different concentrations of NR4A2 antagonists and whole cell lysates were analyzed for markers of apoptosis by western blots.

Series [2] relates to glioblastoma cells. As to the kind of experiment: Measurement of apoptosis (Annexin V staining). The conditions noted are these: 24 hr. Type of series: cell-based, human. On the procedure: Measurement of Apoptosis (Annexin V Staining). Cancer cells were seeded at density of 1.5×10^5 per ml in 6 well plates and treated with either vehicle (DMSO) or compounds for 24 hr.
as §1

Series [3] deals with NR4A2. The conditions noted are these: Panc1 / pancreatic cancer cells.
Procedure: (§2) Transactivation Assay. Cells (8×10^4) per well were plated on 12-well plates in DMEM/F-12 supplemented with 2.5% charcoal-stripped FBS and 0.22% sodium bicarbonate. After 24 h growth, various amounts of DNA [i.e., UASx5-Luc (400 ng), GAL4-Nurr1 (40 ng) and β-gal (40 ng)] were cotransfected into each well by Lipofectamine 2000 reagent (Invitrogen, Carlsbad, Calif.) according to the manufacturer's protocol. After 5-6 hr of transfection, cells were treated with plating media (as above) containing either solvent (DMSO) or the indicated concentration of compounds for 24 hr. Cells were then lysed using a freeze-thaw protocol and 30 μL of cell extract was used for luciferase and β-gal assays. LumiCount (Packard, Meriden, Conn.) was used to quantify luciferase and β-gal activities. Luciferase activity values were normalized against corresponding (3-gal activity values as well as protein concentrations determined by Lowry's Method.
For series [4], the system named is vasoactive intestinal peptide (VIP) in pancreatic cancer cells. The conditions noted are these: initial (background) work; cited from earlier work.
For series [5], the system named is vasoactive intestinal peptide (VIP) gene expression in Panc28 cells. As to the kind of experiment: VIP gene expression by quantitative PCR in Panc28 cells.
Procedure: (§3) The effects of bis-indole and quinoline derivatives on activation of the NR4A2 regulated genes vasoactive intestinal peptide (VIP) was investigated. […] Relative expression levels of VIP were determined by quantitative PCR analysis. Results are expressed as means±SD for at least six separate determinations for each treatment.
The test system of series [6] is vasoactive intestinal peptide (VIP) gene expression in Panc1 cells. As to the kind of experiment: VIP gene expression by quantitative PCR in Panc1 cells.
Procedure: as §3
Series [7] addresses NR4A2 ligand binding domain (LBD) (Homo sapiens, UniProt P43354). As to the kind of experiment: Ligand-induced quenching of NR4A2 LBD tryptophan fluorescence. On the procedure:
Quenching of NR4A1 Tryptophan Fluorescence by Direct Ligand Binding. Tryptophan fluorescence spectra were obtained as described herein. Briefly, histidine-tagged ligand binding domain (LBD) of NR4A1 at a final concentration of 0.5 μmol/L in 1.0 mL of phosphate-buffered saline (PBS, pH 7.4) was used for fluorescence measurements. The protein was incubated for 3 min at 25 °C in a temperature-controlled (Quantum Northwest TC125) fluorescence spectrophotometer (Varian Cary Eclipse). […] Ligand only fluorescence intensity at each ligand concentration was used to correct the NR4A1 tryptophan fluorescence intensity as described in the above references.
Accordingly, ligand binding assay for NR4A1 and NR4A2 which measures ligand-induced quenching of tryptophan fluorescence by the ligand were developed to further characterize activity with respect to NR4A1 and NR4A2. A tryptophane residue is located in the ligand binding domain (LBD) of both receptors and the LBD of the receptor is used in the binding assay.

The subject of the next series is 15037 cells. As to the kind of experiment: 3D tumor spheroid invasion assay. The conditions noted are these: 10 μM, vs DMSO.
For series [8], the system named is U87-MG cells as xenografts. As to the kind of experiment: Xenograft study. Type of series: in vivo, athymic nu/nu mice. The method, then: Xenograft Study. Female athymic nu/nu mice (4-6 weeks old) were purchased from Harlan Laboratories (Houston, TX). U87-MG cells (1×10^6) were harvested in 100 μl of DMEM and suspended in ice-cold Matrigel (1:1 ratio) and s.c. injected to either side of the flank area of the mice. After one week of tumor cell inoculation, mice were divided into two groups of 5 animals each. The first group received 100 μL of vehicle (corn oil), and second group of animals received an injection of 30 mg/kg/day of C-DIM 12 in 100 μl volume of corn oil by i.p. for three weeks. All mice were weighed once a week over the course of treatment to monitor changes in body weight. Tumor volumes could not be determined over the period of treatment because xenografted tumors were relatively deep. After three weeks of treatment, mice were sacrificed and tumor weights were determined.

For another series, the system named is dopaminergic neurons. The following applies: in vivo, previous studies; cited from earlier work.
The conditions of series [9]: previous studies, cited from earlier work.
Series [10] deals with NR4A2.
Procedure: as §2
Another series has as its target T1, NR4A1 LBD (Homo sapiens, UniProt P22736).
T1 construct: histidine tag
As to the kind of experiment: NR4A1/bisANS fluorescence binding. The method, then:
The binding affinity (Kd) and binding stoichiometry (Bmax) of NR4A1/bisANS were determined essentially as described in FEBS Journal, 2014, 281, 2266-2283. For NR4A1/bisANS the binding affinity (Kd) was determined to be […] and the binding stoichiometry (Bmax) was determined to be 0.80 mol bisANS/mol NR4A1. The ability of ligand to displace bisANS was analyzed essentially as described in FEBS Journal, 2014, 281, 2266-2283. Briefly, histidine-tagged NR4A1 LBD (final concentration=0.05 μmon PBS, pH 7.4) was incubated at 25° C. for 3 min in the presence of 5.0 μmol bisANS/L. The bisANS fluorescence spectrum was obtained utilizing a Varian Cary Eclipse fluorescence spectrophotometer with an excitation wavelength of 365 nm (excitation slit width=5 nm) and an emission wavelength range of 400-600 nm (emission slit width=5 nm). Ligand titration was accomplished as described above for direct ligand binding using a stock ligand concentration of 10 mmol ligand/L ethanol. Addition of ethanol only had no effect on NR4A1/bisANS fluorescence (data not shown). […] Ligand/bisANS fluorescence intensity at each ligand concentration was used to correct the NR4A1/bisANS/ligand fluorescence intensity as described in the above reference.

NR4A2 ligand binding domain (LBD), sequence (P43354 360-595 limits assumed, species assumed): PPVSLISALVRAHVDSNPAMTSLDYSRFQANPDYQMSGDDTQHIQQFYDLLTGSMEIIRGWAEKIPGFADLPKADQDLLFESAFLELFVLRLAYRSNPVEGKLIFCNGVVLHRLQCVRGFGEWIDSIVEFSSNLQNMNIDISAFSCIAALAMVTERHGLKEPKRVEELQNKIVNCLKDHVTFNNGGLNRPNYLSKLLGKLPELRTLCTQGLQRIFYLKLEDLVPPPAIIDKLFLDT
T1 sequence (P22736 360-595 limits assumed, species assumed): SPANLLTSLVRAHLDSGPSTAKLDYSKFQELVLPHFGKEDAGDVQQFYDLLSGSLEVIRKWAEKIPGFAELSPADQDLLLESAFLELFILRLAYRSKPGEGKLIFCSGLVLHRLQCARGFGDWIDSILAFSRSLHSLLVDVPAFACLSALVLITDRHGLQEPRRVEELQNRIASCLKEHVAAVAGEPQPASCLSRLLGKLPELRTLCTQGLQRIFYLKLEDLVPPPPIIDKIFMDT
Procedure for 15037 cells: Three-Dimensional (3D) Tumor Spheroid Invasion Assay. The cells were suspended in the complete medium (2×10^4 cells/ml). […] The plate was transferred to the incubator for 1 hr and 100 μl of the complete media containing 3 times the desired final concentration of compounds was supplemented and then incubated for 3-5 days followed by fixation in 4% formaldehyde. Spheroid invasion was determined by measuring the cross-sectional areas of the spheroid center and the rim of invaded cells using ImageJ.

Consider `FC(F)(F)c1cc(C(c2c[nH]c3ccccc23)c2c[nH]c3ccccc23)ccc1Cl` [Ligand 3-CF3-4-Cl], for which the “Cleavage of caspase 7, 8 and PARP” value with glioblastoma cells [1] is “cleaved caspase 7, 8 and PARP cleavage”. In addition, the “Annexin V staining” value in the series with glioblastoma cells [2] is “induced Annexin V staining”. The NR4A2-dependent transactivation result in the series with NR4A2 [3] is given as “induced NR4A2-dependent transactivation”.

Regarding `Brc1ccc(C(c2c[nH]c3ccccc23)c2c[nH]c3ccccc23)cc1` [CDIM-4-Br, 1-bis(3′indolyl)-1-(p-bromophenyl)methane], in series [4], the “Induction of VIP in pancreatic cancer cells” value is on record as “induced vasoactive intestinal peptide (VIP)”.

For the compound `Cn1cc(C(c2ccc(O)cc2)c2cn(C)c3ccccc23)c2ccccc21` [N—Me-4-OH], the “Induction of VIP, in words” value in series [5] is “more potent inducer of VIP in Panc1 and Panc28 cells than either CQ or AQ”; in series [6], “more potent inducer of VIP in Panc1 and Panc28 cells than either CQ or AQ”. In addition, the NR4A2-dependent transactivation entry in the series on NR4A2 [3] was “induced NR4A2-dependent transactivation”.

Turning to `Clc1cccc(C(c2c[nH]c3ccccc23)c2c[nH]c3ccccc23)c1` [CDIM-3-Cl], the “Binding to NR4A2 (quenching of LBD-Trp), in words” value (“Binding to NR4A2” for short) in [7] is reported as “gave similar results”.

As for `Oc1cc(Br)ccc1C(c1c[nH]c2ccccc12)c1c[nH]c2ccccc12` [Ligand 2-OH-4-Br], the “Cleavage of caspase 7, 8 and PARP” value in the series with glioblastoma cells [1] was “cleaved caspase 7, 8 and PARP cleavage”. The “Annexin V staining” value in the series with glioblastoma cells [2] is given as “induced Annexin V staining”. Moreover, the NR4A2-dependent transactivation entry with NR4A2 [3] is on record as “induced NR4A2-dependent transactivation”. Moreover, the “Induction of VIP expression” value in series [6] (bis-indole analogs 5, 10 and 15 μM, CQ 100, 150 and 200 μM, AQ 50, 75 and 100 μM) was at most 330 fold.

For the compound `Clc1ccc(C(c2c[nH]c3ccccc23)c2c[nH]c3ccccc23)cc1` [CDIM-4-Cl], the “Cleavage of caspase 7, 8 and PARP” value with glioblastoma cells [1] is “cleaved caspase 7, 8 and PARP cleavage”. Also, the “Annexin V staining” value with glioblastoma cells [2] is reported as “induced Annexin V staining”. In addition, the Tumor spheroid invasion entry in the series on 15037 cells was “inhibited tumor spheroid invasion”. For the same compound, in series [7], the “Binding to NR4A2” value is on record as “do not quench the LBD-Trp”. In series [8] (30 mg/kg/day i.p. for three weeks, athymic nude mice bearing U87-MG xenograft), the Tumor weight result is on record as “significantly decreased tumor weight”. Also, in series [8] (30 mg/kg/day, western blot of tumor lysates vs vehicle controls), the “Cleaved caspase 8 in tumors” value is recorded as “significant upregulation of cleaved caspase 8”. The “MPTP-induced loss of dopaminergic neurons” value in the series on dopaminergic neurons is “inhibited”. For the same compound, the “Crossing of the blood-brain barrier” value in series [9] was “cross the blood-brain barrier”; in series [9] (listed as DIM-C-pPhCl), “crosses the blood-brain barrier and accumulates in the brain”. The “NR4A2-dependent transactivation in GBM cells (FIGS. 4A-4C)” value in the series on NR4A2 [10] is listed as “inhibited NR4A2-dependent transactivation”. Also, the NR4A2-dependent transactivation entry in the series with NR4A2 [3] is listed as “activated NR4A2-dependent transactivation”. Besides, the “Induction of VIP in pancreatic cancer cells” value in [4] is “induced vasoactive intestinal peptide (VIP)”.

In the case of `O=S(=O)(O)c1cccc2c(-c3ccc(Nc4ccccc4)c4c(S(=O)(=O)O)cccc34)ccc(Nc3ccccc3)c12` [bisANS], the “NR4A1/bisANS binding stoichiometry (Bmax)” value on NR4A1 LBD was 0.80 mol bisANS/mol NR4A1.

`Clc1ccccc1C(c1c[nH]c2ccccc12)c1c[nH]c2ccccc12` [CDIM-2-Cl]: the “Binding to NR4A2” value in series [7] is recorded as “gave similar results”.
